Test results: ChEMBL document CHEMBL1667811, “Influence of pKa on the biotransformation of indene H1-antihistamines by CYP2D6” (Bioorg Med Chem Lett, 2011)

Legend:
[1] = target: Cytochrome P450 2D6 (Homo sapiens, UniProt P10635)
[2] = target: Cytochrome P450 3A4 (Homo sapiens, UniProt P08684)
[3] = target: Histamine H1 receptor (Homo sapiens, UniProt P35367); experiment: Binding affinity to histamine H1 receptor
[4] = target: hERG (KCNH2) (Homo sapiens, UniProt Q12809); experiment: Displacement of labeled dofetilide from human ERG at 3 uM; details: probe labeled dofetilide
[5] = Ratio of drug level in brain to plasma in rat at 1 mg/kg, iv after 4 hrs; type: ADME, organism-based; parameters: dose 1 mg/kg, route intravenous; details: read-out: BPR
[6] = Drug uptake in rat brain at 1 mg/kg, iv after 4 hrs; type: ADME, organism-based; parameters: dose 1 mg/kg, route intravenous; details: read-out: Drug uptake

Sequence of hERG (KCNH2) (Q12809 whole entry): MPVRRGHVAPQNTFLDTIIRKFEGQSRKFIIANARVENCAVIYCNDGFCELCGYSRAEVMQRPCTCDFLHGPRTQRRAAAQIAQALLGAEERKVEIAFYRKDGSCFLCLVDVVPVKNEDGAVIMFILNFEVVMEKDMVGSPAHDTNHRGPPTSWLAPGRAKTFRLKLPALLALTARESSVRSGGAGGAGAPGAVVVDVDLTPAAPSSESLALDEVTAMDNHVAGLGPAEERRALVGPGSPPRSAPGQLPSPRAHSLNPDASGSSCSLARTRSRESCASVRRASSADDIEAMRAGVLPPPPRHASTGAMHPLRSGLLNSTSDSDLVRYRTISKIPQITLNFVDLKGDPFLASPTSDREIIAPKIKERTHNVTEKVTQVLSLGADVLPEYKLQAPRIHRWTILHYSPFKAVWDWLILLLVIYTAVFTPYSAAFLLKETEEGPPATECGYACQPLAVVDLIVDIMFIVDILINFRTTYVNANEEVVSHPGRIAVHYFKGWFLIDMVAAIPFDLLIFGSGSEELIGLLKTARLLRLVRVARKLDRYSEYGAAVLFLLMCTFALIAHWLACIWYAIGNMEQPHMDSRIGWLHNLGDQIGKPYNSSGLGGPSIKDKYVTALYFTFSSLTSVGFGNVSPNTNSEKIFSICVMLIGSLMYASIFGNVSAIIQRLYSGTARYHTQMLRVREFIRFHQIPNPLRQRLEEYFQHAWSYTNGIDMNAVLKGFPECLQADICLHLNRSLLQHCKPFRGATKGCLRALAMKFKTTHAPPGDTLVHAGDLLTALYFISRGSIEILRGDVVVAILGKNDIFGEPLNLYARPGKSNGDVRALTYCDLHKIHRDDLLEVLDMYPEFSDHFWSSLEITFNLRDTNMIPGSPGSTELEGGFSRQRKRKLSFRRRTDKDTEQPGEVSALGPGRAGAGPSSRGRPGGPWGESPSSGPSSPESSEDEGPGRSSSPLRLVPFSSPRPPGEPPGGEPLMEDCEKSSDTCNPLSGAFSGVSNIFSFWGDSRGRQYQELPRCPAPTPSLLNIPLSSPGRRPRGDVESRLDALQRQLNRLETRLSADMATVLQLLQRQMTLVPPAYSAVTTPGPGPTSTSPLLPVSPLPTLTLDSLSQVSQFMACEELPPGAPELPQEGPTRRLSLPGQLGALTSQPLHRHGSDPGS
Sequence of Cytochrome P450 2D6 (P10635 whole entry): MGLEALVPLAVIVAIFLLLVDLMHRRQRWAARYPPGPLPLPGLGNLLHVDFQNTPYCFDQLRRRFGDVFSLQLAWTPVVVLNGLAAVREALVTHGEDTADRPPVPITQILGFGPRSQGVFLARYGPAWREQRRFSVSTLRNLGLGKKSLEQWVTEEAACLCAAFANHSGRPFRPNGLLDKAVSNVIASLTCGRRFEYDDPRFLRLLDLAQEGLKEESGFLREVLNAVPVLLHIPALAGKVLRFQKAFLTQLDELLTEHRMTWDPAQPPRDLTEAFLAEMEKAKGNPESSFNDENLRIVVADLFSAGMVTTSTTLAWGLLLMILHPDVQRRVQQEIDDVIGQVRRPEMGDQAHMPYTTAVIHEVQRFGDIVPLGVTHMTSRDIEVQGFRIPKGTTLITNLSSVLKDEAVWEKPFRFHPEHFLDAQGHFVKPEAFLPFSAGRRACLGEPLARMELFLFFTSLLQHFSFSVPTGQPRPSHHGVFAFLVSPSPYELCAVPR
Sequence of Cytochrome P450 3A4 (P08684 whole entry): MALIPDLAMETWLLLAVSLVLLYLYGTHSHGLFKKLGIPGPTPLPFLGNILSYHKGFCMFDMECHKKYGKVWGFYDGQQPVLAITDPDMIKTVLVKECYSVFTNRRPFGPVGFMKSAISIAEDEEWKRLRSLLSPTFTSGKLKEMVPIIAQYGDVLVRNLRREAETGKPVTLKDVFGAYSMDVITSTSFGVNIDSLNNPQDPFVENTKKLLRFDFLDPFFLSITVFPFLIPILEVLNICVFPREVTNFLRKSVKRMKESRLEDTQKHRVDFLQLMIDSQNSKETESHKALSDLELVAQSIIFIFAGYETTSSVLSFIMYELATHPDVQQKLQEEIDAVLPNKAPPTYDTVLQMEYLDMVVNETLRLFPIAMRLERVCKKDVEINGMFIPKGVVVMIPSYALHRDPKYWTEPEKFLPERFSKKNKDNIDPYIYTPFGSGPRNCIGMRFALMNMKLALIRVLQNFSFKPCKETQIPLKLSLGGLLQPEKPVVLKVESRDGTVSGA
Sequence of Histamine H1 receptor (P35367 whole entry): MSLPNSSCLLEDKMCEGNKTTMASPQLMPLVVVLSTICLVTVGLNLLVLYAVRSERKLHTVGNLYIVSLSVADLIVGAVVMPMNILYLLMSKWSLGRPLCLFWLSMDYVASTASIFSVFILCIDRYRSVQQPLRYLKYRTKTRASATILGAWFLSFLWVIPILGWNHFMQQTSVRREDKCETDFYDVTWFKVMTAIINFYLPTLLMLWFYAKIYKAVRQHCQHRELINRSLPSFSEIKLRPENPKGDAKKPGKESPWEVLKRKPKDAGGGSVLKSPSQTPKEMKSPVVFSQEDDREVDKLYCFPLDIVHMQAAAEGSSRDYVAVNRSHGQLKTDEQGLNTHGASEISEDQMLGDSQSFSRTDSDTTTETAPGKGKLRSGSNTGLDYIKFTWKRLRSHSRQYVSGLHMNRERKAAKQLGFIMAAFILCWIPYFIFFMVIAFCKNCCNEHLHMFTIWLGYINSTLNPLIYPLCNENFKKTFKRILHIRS

Compound	IC50 [1] [nM]	IC50 [2] [nM]	Ki [3] [nM]	Kp at 4 h [5]	concentration at 4 h [6] [ng/g]	inhibition at 3 µM [4] [%]
CCCN(C)CCC1=C(Cc2cnccn2)c2ccccc2C1	973	4040	41	–	–	0
C[C@H](C1=C(CCN(C)CCF)Cc2ccccc21)c1cnccn1	2610	> 10000	13	–	–	0
C[C@H](C1=C(CCN(C)CC#N)Cc2ccccc21)c1cnccn1	> 10000	> 10000	32	–	–	0
C[C@H](C1=C(CCN(C)CCC#N)Cc2ccccc21)c1cnccn1	> 10000	> 10000	109	–	–	0
C[C@H](C1=C(CCN(C)CCC(F)(F)F)Cc2ccccc21)c1cnccn1	7220	> 5000	91	–	–	0
C[C@H](C1=C(CCN(C)Cc2ccco2)Cc2ccccc21)c1cnccn1	4360	2750	8.1	–	–	0
C[C@H](C1=C(CCN(C)Cc2cccs2)Cc2ccccc21)c1cnccn1	1430	1830	6.7	–	–	0
C[C@H](C1=C(CCN(C)Cc2nccs2)Cc2ccccc21)c1cnccn1	> 10000	2820	48	–	–	0
C[C@H](C1=C(CCN(C)Cc2ncco2)Cc2ccccc21)c1cnccn1	> 10000	4840	162	–	–	0
C[C@H](C1=C(CCN(C)Cc2ncc[nH]2)Cc2ccccc21)c1cnccn1	5850	4420	8.8	–	–	0
C[C@H](C1=C(CCN(C)Cc2nccn2C)Cc2ccccc21)c1cnccn1	5680	1540	28	–	–	0
C[C@H](C1=C(CCN(C)Cc2ccccn2)Cc2ccccc21)c1cnccn1	5710	4780	13.9	–	–	0
C[C@H](C1=C(CCN(C)Cc2ccncc2)Cc2ccccc21)c1cnccn1	7960	–	4.9	–	–	0
C[C@H](C1=C(CCN(C)Cc2cnccn2)Cc2ccccc21)c1cnccn1	> 10000	> 10000	24.7	–	–	0
C[C@H](C1=C(CCN(C)CC2CCOCC2)Cc2ccccc21)c1cnccn1	9370	> 10000	15.2	–	–	0

Second part, led by results:

IC50 [1] [nM]	IC50 [2] [nM]	Ki [3] [nM]	Kp at 4 h [5]	concentration at 4 h [6] [ng/g]	Compound	inhibition at 3 µM [4] [%]
4350	> 10000	7.2	–	–	CCN(C)CCC1=C(Cc2cnccn2)c2ccccc2C1	0
3090	> 10000	–	–	–	CN(CCF)CCC1=C(Cc2cnccn2)c2ccccc2C1	0
8840	> 10000	4.3	–	–	c1ccc2c(c1)CC(CCN1CCC1)=C2Cc1cnccn1	0
3380	> 10000	2.8	–	–	c1ccc2c(c1)CC(CCN1CCCC1)=C2Cc1cnccn1	0
6470	> 10000	49	–	–	FC1CN(CCC2=C(Cc3cnccn3)c3ccccc3C2)C1	0
> 10000	–	4610	–	–	FC1(F)CN(CCC2=C(Cc3cnccn3)c3ccccc3C2)C1	0
7530	1400	249	–	–	FC1(F)CCN(CCC2=C(Cc3cnccn3)c3ccccc3C2)C1	0
4290	> 10000	10.5	3.9	57	FC1CCN(CCC2=C(Cc3cnccn3)c3ccccc3C2)C1 (stereo unspecified)	0
